Data from PubChem BioAssay (NCI).
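Grown in 96-well plates, cells were treated for 48 hours with each compound at five concentrations. Insufficient inhibition: endpoint recorded as highest concentration tested. At the GI50, growth is halved. Definition used: TGI = concentration required for complete inhibition of growth.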

Legend:
Test in all cases: NCI-60 cell line screen, 48 h
HOP-62 NSCLC = test system: HOP-62 NSCLC
HS 578T breast = test system: HS 578T breast
NCI-H23 lung = test system: NCI-H23 lung
NCI/ADR-RES ovarian = test system: NCI/ADR-RES ovarian
HCC-2998 colon = test system: HCC-2998 colon
MDA-MB-231 breast = test system: MDA-MB-231 breast
M14 melanoma = test system: M14 melanoma
A498 renal = test system: A498 renal
UACC-257 melanoma = test system: UACC-257 melanoma
MDA-MB-435 = test system: MDA-MB-435
OVCAR-4 ovarian = test system: OVCAR-4 ovarian
NCI-H226 lung = test system: NCI-H226 lung
CCRF-CEM leukemia = test system: CCRF-CEM leukemia
CAKI-1 renal = test system: CAKI-1 renal
HT29 colon = test system: HT29 colon
MOLT-4 leukemia = test system: MOLT-4 leukemia
SR leukemia = test system: SR leukemia

Row | Compound | TGI (HOP-62 NSCLC) [µM] | TGI (HS 578T breast) [µM] | TGI (NCI-H23 lung) [µM] | TGI (NCI/ADR-RES ovarian) [µM] | TGI (HCC-2998 colon) [µM] | TGI (MDA-MB-231 breast) [µM] | TGI (M14 melanoma) [µM] | TGI (A498 renal) [µM] | TGI (UACC-257 melanoma) [µM] | TGI (MDA-MB-435) [µM] | TGI (OVCAR-4 ovarian) [µM] | TGI (NCI-H226 lung) [µM] | TGI (CCRF-CEM leukemia) [µM] | TGI (CAKI-1 renal) [µM] | TGI (HT29 colon) [µM] | TGI (MOLT-4 leukemia) [µM] | TGI (SR leukemia) [µM] | GI50 (M14 melanoma) [µM] | GI50 (HT29 colon) [µM]
1 | O=C1C=CC(=O)c2c(O)c(Nc3ccc(OC(F)(F)F)cc3)c(Cl)c(O)c21 | 2.57 | 10.8 | 0.708 | 4.57 | 1.27 | 1.41 | 1.22 | 9.36 | 7.95 | 2.17 | 2.98 | 3.44 | 4.32 | 2.96 | 1.28 |  |  |  | 
2 | Cc1ccc(-c2n[nH]c(CC#N)n2)cc1 | > 100 | > 100 | > 100 | > 100 | > 100 |  | > 100 | > 100 | > 100 | > 100 | > 100 |  | > 100 | > 100 | > 100 | > 100 | > 100 |  | 
3 | CC1=CC(=O)c2cccc(O)c2C1=O | 30.9 | 7.13 | 7.32 |  | 16.8 | 3.15 | 3.25 | 33.5 | 3.36 | 3.28 | 3.39 | 14.4 | 14.7 | 3.29 | 10.4 | > 28.3 | > 21.9 |  | 
4 | O=C(CN1CCOCC1)NC1=Nc2ncccc2C(=O)NN1 | > 10 | > 10 | > 10 |  |  | > 10 | > 10 | > 10 | > 10 | > 10 |  | > 10 | > 10 |  | > 10 | > 10 | > 10 |  | 
5 | CC1(C)C2CCC1(C)C(NC(=O)CCN1CCOCC1)C2 (centres undefined) | > 100 | > 100 | > 100 |  | > 100 | > 100 | > 100 | > 100 | > 100 | > 100 | > 100 | > 100 | > 100 | > 100 | > 100 | > 100 | > 100 |  | 
6 | COc1cccc2c1[C@H](OC)[C@]13O[C@@]1(C2=O)[C@H](O)[C@H](C)[C@@](O)(C(=O)[C@@H]1O[C@H]1C)[C@@H]3O | 1.59 | 0.618 | 0.541 | > 100 |  | 0.977 | 0.395 | 0.585 | 0.527 | 0.518 | 0.555 | 1.2 | 0.555 | 0.88 | 1.11 | > 47.6 |  | 0.197 | 0.251
7 | COc1ccc(/C=C/c2cc(=O)cc(/C=C/c3ccc(OC)c(O)c3)o2)cc1O | 12.2 | > 100 | 5.8 | > 24.3 | 3.32 | 5.73 | 4.45 | 9.43 | 3.78 |  | 9.77 | 20.7 | 5.91 | 12 | 4.1 | 4.9 | 2.89 |  | 
8 | COC(=O)c1ccc(/C=N/c2cc(C)nn2-c2ccccc2)cc1 | > 100 | > 100 | > 100 | > 100 | 8.05 | > 100 | > 100 |  | 20.4 | 96.6 | > 100 | > 100 | > 100 | > 100 | 92.1 | > 100 | > 100 |  | 
9 | COC(=O)c1ccccc1C1CN=NC12Cc1c(C)c3c(c(C)c1C2=O)CCC3 (centres undefined) | > 100 | > 100 | > 100 | > 100 | > 100 | > 100 | > 100 | > 100 | > 100 | > 100 | > 100 | > 100 | > 100 | > 100 | > 100 | > 100 |  |  | 
10 | O=c1cc2oc3ccc4ccccc4c3cc-2c(=O)[nH]1 | 25.2 | 58.4 | 4.78 | 37.1 | 31.8 |  | 32.2 | 31.8 | 30.6 | 25 | 48.5 |  | 2.6 | 28.8 | 32.2 | 8.02 | 11 |  | 
11 | S=c1scc(-c2ccc(Cl)cc2)n1OC1CCCC1 | > 100 | > 100 | > 100 | > 100 | 71.2 | > 100 | > 100 | 79.8 | > 100 | 79.3 | > 100 |  |  | > 100 | > 100 | 67.7 |  |  | 
